pIC50: −log10 of the molar value. Counter-ions that a name gives are not always drawn. Like-named read-outs stand apart in the source and are kept apart here.
How the values were obtained:
[1] = system: Scopolamine Induced Memory Deficit; assay type: in vivo, mice
Description: In this assay mice are tested for their ability to remember an unpleasant stimulus for a period of 24 hours. A mouse is placed in a chamber that contains a dark compartment; a strong incandescent light drives it to the dark compartment, where an electric shock is administered through metal plates on the floor. The animal is removed from the testing apparatus and tested again, 24 hours later, for the ability to remember the electric shock.
If scopolamine, an anticholinergic that is known to cause memory impairment, is administered before an animal's initial exposure to the test chamber, the animal re-enters the dark compartment shortly after being placed in the test chamber 24 hours later. This effect of scopolamine is blocked by an active test compound, resulting in a greater interval before re-entry into the dark compartment.
The results for an active compound are expressed as the percent of a group of animals in which the effect of scopolamine is blocked, as manifested by an increased interval between being placed in the test chamber and re-entering the dark compartment.
Results of this assay for some of the compounds of this invention and those for tacrine and pilocarpine (reference compounds) are presented in Table 2.

[2] = molecular target: T1, Brain AChE (acetylcholinesterase, rat striatum) (Rattus norvegicus, UniProt P37136); assay: In Vitro Inhibition of Acetylcholinesterase Activity in Rat Striatum; assay type: biochemical, rat (male Wistar)
T1 construct: corpora striata dissected free, weighed and homogenized in 19 volumes; from tissue; host or cells: corpora striata of male Wistar rats, whole homogenate
T1 sequence (P37136 32-614): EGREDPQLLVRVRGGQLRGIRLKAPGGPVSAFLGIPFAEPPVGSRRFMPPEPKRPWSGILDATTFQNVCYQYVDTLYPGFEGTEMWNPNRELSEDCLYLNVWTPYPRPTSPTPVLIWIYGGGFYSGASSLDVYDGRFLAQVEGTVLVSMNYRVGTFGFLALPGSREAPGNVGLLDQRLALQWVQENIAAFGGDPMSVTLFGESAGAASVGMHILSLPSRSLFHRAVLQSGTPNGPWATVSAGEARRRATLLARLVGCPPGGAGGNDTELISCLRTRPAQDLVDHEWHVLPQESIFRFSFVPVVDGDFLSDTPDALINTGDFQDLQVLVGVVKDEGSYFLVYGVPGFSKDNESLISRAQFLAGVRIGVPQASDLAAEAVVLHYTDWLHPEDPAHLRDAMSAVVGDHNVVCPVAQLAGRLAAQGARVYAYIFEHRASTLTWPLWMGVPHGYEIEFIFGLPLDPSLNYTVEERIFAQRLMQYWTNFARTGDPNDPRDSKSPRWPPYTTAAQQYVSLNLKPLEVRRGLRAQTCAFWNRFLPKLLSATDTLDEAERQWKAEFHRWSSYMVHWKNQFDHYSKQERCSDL
Description: Cholinesterases are found throughout the body, both in the brain and in serum. However, only brain acetylcholinesterase (AChE) distribution is correlated with central cholinergic innervation.
In Vitro Inhibition of Acetylcholinesterase Activity in Rat Striatum
The method described below was used in this invention for assaying cholinesterase activity.
1. 0.05M Phosphate buffer, pH 7.2
(a) 6.85 g NaH2 PO4 .cndot.H2 O/100 ml distilled H2 O
(c) add (a) to (b) until pH reaches 7.2
(a) 9.9 mg 5,5-dithiobisnitrobenzoic acid (DTNB) (0.25 mM)
(b) 99 mg s-acetylthiocholine chloride (5 mM)
(c) q.s. to 100 ml with 0.05M phosphate buffer, pH 7.2 (reagent 1)
3. […]
Following the 10 minute preincubation of the tissue (enzyme) with the inhibitor, the samples are mixed with the substrate chromogen buffer by the ABA-100. Using the indicated instrument settings the ABA-100 automatically reads the color reaction and prints out the results in enzyme units after 15 minutes.
2. The enzyme activity can also be measured with Gilford 250 spectrophotometer. […]
The uninhibited activity of the enzyme (tissue homogenate) is first determined. […] The reaction rate is determined by the slope of the recorded absorbance change. […]

[3] = 0.31 mg/kg of body weight, s.c, mice, 24 hours
[4] = 5.0 mg/kg of body weight, s.c, mice, 24 hours

SMILES: CN1CCC2(C)c3cc(NC(=O)OC(C)(C)C)ccc3N(C)C12.O=C(O)C(=O)O (stereo not shown) [5-(t-Butoxycarbonylamino)-1,2,3,3a,8,8a-hexahydro-1,3a,8-trimethylpyrrolo[2,3-b]indole oxalate]
- % of Animals with Scopolamine Induced Memory Deficit Reversal [1, 3]: 33%
- % of Animals with Scopolamine Induced Memory Deficit Reversal ([1]; 1.25 mg/kg of body weight, s.c, mice, 24 hours): 20%
- % of Animals with Scopolamine Induced Memory Deficit Reversal [1, 4]: 27%

SMILES: CN1CCC2(C)c3cc(NC(=O)OCc4ccccc4)ccc3N(C)C12 (stereo not shown) [5-(Benzoxycarbonylamino)-1,2,3,3a,8,8a-hexahydro-1,3a,8-trimethylpyrrolo[2,3-b]indole]
- % of Animals with Scopolamine Induced Memory Deficit Reversal ([1]; 0.3 mg/kg of body weight, s.c, mice, 24 hours): 28%
- % of Animals with Scopolamine Induced Memory Deficit Reversal ([1]; 1.0 mg/kg of body weight, s.c, mice, 24 hours): 21%
- % of Animals with Scopolamine Induced Memory Deficit Reversal ([1]; 3.0 mg/kg of body weight, s.c, mice, 24 hours): 21%

SMILES: CN1CCC2(C)c3cc(NC(=O)Oc4ccccc4)ccc3N(C)C12.O=C(O)C(=O)O (stereo not shown) [1,2,3,3a,8,8a-Hexahydro-5-(phenoxycarbonylamino)-1,3a,8-trimethylpyrrolo[2,3-b]indole oxalate]
- pIC50 [2]: 4.85
- % of Animals with Scopolamine Induced Memory Deficit Reversal [1, 3]: 40%
- % of Animals with Scopolamine Induced Memory Deficit Reversal ([1]; 1.16 mg/kg of body weight, s.c, mice, 24 hours): 53%
- % of Animals with Scopolamine Induced Memory Deficit Reversal [1, 4]: 21%

SMILES: Nc1c2c(nc3ccccc13)CCCC2 [Tacrine, reference compound]
- % of Animals with Scopolamine Induced Memory Deficit Reversal ([1]; mouse, in vivo): 13%

SMILES: CN1CCC2(C)c3cc(NC(=O)Oc4ccc(Cl)cc4)ccc3N(C)C12 (stereo not shown) [5-(4-Chlorophenoxycarbonylamino)-1,2,3,3a,8,8a-hexahydro-1,3a,8-trimethylpyrrolo[2,3-b]indole oxalate]
- pIC50 [2]: 5.96

SMILES: CC[C@@H]1C(=O)OC[C@@H]1Cc1cncn1C [Pilocarpine, reference compound]
- % of Animals with Scopolamine Induced Memory Deficit Reversal [1, 4]: 13%

From patent US4983616A, “Hexahydropyrrolo(2,3-B)indole carbamates, ureas, amides and related compounds” (priority 1990, dated 1991)
